Source: patent US20060024414A1, “Methods for preserving food products” (Kraft Foods Holdings, Inc., priority 2004, published 2006)

Tests used:
[1] = tested on: Listeria monocytogenes OSY-8578; experiment: Inoculated bagged Vienna sausage challenge, warm enrichment/plating for survivors; assay type: cell-based; conditions: nisin 0 IU/g, about 5 min; for Percentage of Bags Testing Positive For Listeria in Batch of 5 (±S.D.): TBHQ 100 ppm, sausage about 10^6 CFU/g; for Percentage of Bags Testing Positive For Listeria in Batch of 3 (±S.D.): TBHQ 300 ppm, sausage about 10^6 per g
Method: (§1) In another embodiment, a food substrate processed according to methods of this invention has nondetectable levels of Listeria (even if contamination has occurred). […] The mixture is incubated at 37° C. for 48 hours, followed by the enrichment (mixture) being streaked on Oxford agar or […] agar, and observing the streaked plate for the presence/absence of Listeria. […] Tailing effects also may be reduced or eliminated by methods of the present invention. The presence or absence of other microorganisms may be detected using similar techniques modified for the specific microorganism under consideration. The edible hydroquinone was tert-butylhydroquinone (TBHQ) at a level of either 0 or 100 ppm. The tert-butylhydroquinone was a food grade material obtained from Sigma Chemical Co. (St. Louis, Mo.). The lantibiotic was nisin at a level of either 0 or 100 IU/g. The nisin used was either pure nisin or a commercial nisin ([…]®), both from Aplin & Barrett, Ltd. (Trowbridge, England). […] Nisin samples were prepared by dissolving nisin powder in distilled water, adjusting the pH to 2 with HCl, and sterilizing at 121° C. for 10 minutes. Samples were prepared and used on the same day for each experiment. Three strains of Listeria monocytogenes were used in these challenge studies. Listeria monocytogenes Scott A, OSY-8578, and OSY-328, were obtained from the Food Safety Laboratory of the Department of Food Science and Technology at The Ohio State University (Columbus, Ohio). All experiments were carried out with cultures in stationary phase (grown in tryptose broth (TB; Difco Laboratories, Detroit, Mich.) for 18 hours at 37° C.). […] The hydrostatic pressure used was 600 MPa. For comparison purposes, samples were also treated with no hydrostatic pressure (i.e., under atmospheric pressure). A hydrostatic food processor (Quintus QFP-6, ABB Autoclave Systems, Inc., Columbus, Ohio) was used with a pressure transmitting fluid containing a water/propylene glycol (1:1 vol/vol; Houghto-Safe 620-TY, Houghton International, Inc., Valley Forge, Pa.). Samples were held in a refrigerator before processing and placed on ice following treatment. The temperature during each run was monitored using a thermocouple and a datalogger (Campbell Scientific, Inc., Logan, Utah). […] Canned Vienna sausage (Armour®, The Dial Corporation, Scottsdale, Ariz.) was purchased from local grocery stores. […] One milliliter of each additive, alone or in combinations, was added, and the bags were sealed using vacuum […], Kansas City, Mo.). […] Non-pressurized samples were treated in a similar manner except that no pressure was applied. After high pressure processing, bags were opened aseptically. […] The presence or absence of L. monocytogenes survivors in the samples was determined by streaking the incubated mixture onto Oxford agar and/or […] agar. Each test run consisted of 5 tested bags at a given set of variables; the experiment was repeated 4 times. Treatment conditions required for essentially total elimination of L. monocytogenes were determined using essentially the same materials and procedures as used in Example 1 except that the nisin level was 0, 100, or 200 IU/g; the hydroquinone level was 0, 100, 200, or 300 ppm; and each experiment was repeated 3 times.

[2] = tested on: Listeria monocytogenes OSY-328; experiment: as above; assay type: cell-based; conditions: nisin 0 IU/g, about 5 min; for Percentage of Bags Testing Positive For Listeria in Batch of 5 (±S.D.): TBHQ 100 ppm, sausage about 10^6 CFU/g; for Percentage of Bags Testing Positive For Listeria in Batch of 3 (±S.D.): TBHQ 300 ppm, sausage about 10^6 per g
Method: as §1

In the case of CC(C)(C)c1cc(O)ccc1O [TBHQ, tert-butylhydroquinone], the “Percentage of Bags Testing Positive For Listeria in Batch of 5 (±S.D.)” value (shortened to “Percentage … of 5 (±S.D.)”) ([1]; Run 3: 0 MPa) is reported as 100%, the “Percentage … of 5 (±S.D.)” value ([1]; Run 7: 600 MPa) is reported as 25 (±30) % and the “Percentage of Bags Testing Positive For Listeria in Batch of 3 (±S.D.)” value (shortened to “Percentage … of 3 (±S.D.)”) ([1]; Run 10: 0 MPa) is reported as 100%. For the same compound, the “Percentage … of 3 (±S.D.)” value ([1]; Run 15: 600 MPa) was 0%, the “Percentage … of 5 (±S.D.)” value ([2]; Run 3: 0 MPa) was 100% and the “Percentage … of 5 (±S.D.)” value ([2]; Run 7: 600 MPa) was 20 (±16) %. The “Percentage … of 3 (±S.D.)” value ([2]; Run 10: 0 MPa) was 100% and the “Percentage … of 3 (±S.D.)” value ([2]; Run 15: 600 MPa) was 0%.
